# Assay results: ChEMBL document CHEMBL4616678, “Design, Synthesis, and Physicochemical and Pharmacological Profiling of 7-Hydroxy-5-oxopyrazolo[4,3-b]pyridine-6-carboxamide Derivatives with Antiosteoarthritic Activity In Vivo” (J Med Chem, 2020)
# Activity calls are given as the source filed them.
# Legend:
# [1] = Kinetic solubility of the compound at pH 7.4 by HPLC-UV method; assay type: physicochemical; settings: buffer, read-out: Kinetic_solubility
# [2] = biological target: T1, Cannabinoid receptor 2 (Homo sapiens, UniProt P34972); assay: Inverse agonist activity at recombinant human CB2R expressed in CHOK1 cells assessed as increase in NKH477-stimulated intracellular cAMP levels after 30 mins by chemiluminescent based cAMP Hunter assay; assay type: functional, cell-based, CHO-K1
# [3] = Kinetic solubility of the compound at pH 1.0 by HPLC-UV method; assay type: physicochemical; settings: buffer, read-out: Kinetic_solubility
# [4] = biological target: Cannabinoid receptor 1 (Homo sapiens, UniProt P21554); assay: Displacement of [3H]-CP-55,940 from recombinant human CB1R expressed in HEK293 cell membranes
# [5] = biological target: T1, Cannabinoid receptor 2; assay: Displacement of [3H]-CP-55,940 from recombinant human CB2R expressed in HEK293 cell membranes
# [6] = test system: NIH3T3; assay: Cytotoxicity against mouse NIH/3T3 assessed as reduction in cell viability after 1 to 14 days by Neutral red dye-based UV-visible spectrophotometer analysis; assay type: functional
# [7] = Cytotoxicity against human NHAC-kn assessed as reduction in cell viability after 1 to 14 days by Neutral red dye-based UV-visible spectrophotometer analysis; assay type: functional
# [8] = Ionization Constants, pKa of the compound by UV-vis spectra analysis; assay type: physicochemical
# [9] = Lipophilicity, log P of the compound by UV-vis spectra analysis; assay type: physicochemical; settings: octanol/water
# [10] = species on record: Homo sapiens; assay: Selectivity index, ratio of Ki for recombinant human CB1R expressed in HEK293 cell membranes to Ki for recombinant human CB2R expressed in HEK293 cell membranes; assay type: cell-based
# [11] = biological target: T1, Cannabinoid receptor 2; assay: Agonist activity at recombinant human CB2R expressed in CHOK1 cells assessed as inhibition of NKH477-stimulated intracellular cAMP levels after 30 mins by chemiluminescent detection based cAMP Hunter assay; assay type: functional, cell-based, CHO-K1
# [12] = test system: Rattus norvegicus; assay: Analgesic activity in MIA induced Wistar rat assessed as differences in forces applied between rear left and rear right injured paws at 1 mg/kg, ip injection after 60 mins in presence of AM-630 by KWB test; assay type: functional, organism-based
# [13] = biological target: T1, Cannabinoid receptor 2; assay: Antagonist activity at TNF-alpha induced CB2R in human HC-OA cells assessed as decreased in IL-1beta mRNA production preincubated for 1 hr followed by TNF-alpha stimulation measured after 5 hrs by RT-PCR analysis; assay type: cell-based
# [14] = Induction of extracellular matrix production in human NHAC-kn cells assessed as HYP level at 7.5 uM after 1 day by UV-visible spectrophotometer analysis (reference value: 9.9 +/- 0.3 ug); assay type: functional
# [15] = Induction of extracellular matrix production in human NHAC-kn cells assessed as sGAG level at 7.5 uM after 14 days by UV-visible spectrophotometer analysis (reference value: 12.0 +/- 0.4 ug); assay type: functional
# [16] = Induction of extracellular matrix production in human NHAC-kn cells assessed as HYP level at 7.5 uM after 14 days by UV-visible spectrophotometer analysis (reference value: 14.2 +/- 0.4 ug); assay type: functional
# [17] = biological target: T1, Cannabinoid receptor 2; assay: Antagonist activity at TNF-alpha induced CB2R in human HC-OA cells assessed as decreased in IL-1beta mRNA production preincubated for 1 hr followed by TNF-alpha stimulation measured after 5 hrs in presence of AM-630 by RT-PCR analysis; assay type: cell-based
# [18] = Induction of extracellular matrix production in human NHAC-kn cells assessed as sGAG/HYP level at 7.5 uM after 1 day by UV-visible spectrophotometer analysis (reference value: 0.9 +/- 0.1 ug); assay type: functional
# [19] = Induction of extracellular matrix production in human NHAC-kn cells assessed as HYP level at 7.5 uM after 7 days by UV-visible spectrophotometer analysis (reference value: 13.2 +/- 0.3 ug); assay type: functional
# [20] = test system: Rattus norvegicus; assay: Analgesic activity in MIA induced Wistar rat assessed as hind limb withdrawal threshold at 1 mg/kg, ip injection after 300 mins by PAM test; assay type: functional, organism-based
# [21] = Induction of extracellular matrix production in human NHAC-kn cells assessed as sGAG level at 7.5 uM after 1 day by UV-visible spectrophotometer analysis (reference value: 9.3 +/- 0.2 ug); assay type: functional
# [22] = Cytotoxicity against human NHAC-kn assessed as reduction in cell viability at 7.5 uM after 7 days by Neutral red dye-based UV-visible spectrophotometer analysis (reference value: 73 +/- 8%); assay type: functional
# [23] = test system: Rattus norvegicus; assay: Analgesic activity in MIA induced Wistar rat assessed as differences in forces applied between rear left and rear right injured paws at 1 mg/kg, ip injection after 60 mins by KWB test; assay type: functional, organism-based
# [24] = Induction of extracellular matrix production in human NHAC-kn cells assessed as sGAG level at 7.5 uM after 7 days by UV-visible spectrophotometer analysis (reference value: 11.2 +/- 0.4 ug); assay type: functional
# [25] = Cytotoxicity against human NHAC-kn assessed as reduction in cell viability at 7.5 uM after 14 days by Neutral red dye-based UV-visible spectrophotometer analysis (reference value: 100 +/- 11%); assay type: functional
# [26] = Cytotoxicity against human NHAC-kn assessed as reduction in cell viability at 7.5 uM after 1 day by Neutral red dye-based UV-visible spectrophotometer analysis (reference value: 46 +/- 6%); assay type: functional
# [27] = Induction of extracellular matrix production in human NHAC-kn cells assessed as sGAG/HYP level at 7.5 uM after 7 days by UV-visible spectrophotometer analysis (reference value: 0.8 +/- 0.2 ug); assay type: functional
# [28] = test system: Rattus norvegicus; assay: Analgesic activity in MIA induced Wistar rat assessed as hind limb withdrawal threshold at 1 mg/kg, ip injection after 300 mins in presence of AM-630 by PAM test; assay type: functional, organism-based
# [29] = Induction of extracellular matrix production in human NHAC-kn cells assessed as sGAG/HYP level at 7.5 uM after 14 days by UV-visible spectrophotometer analysis (reference value: 0.9 +/- 0.2 ug); assay type: functional
# T1 sequence (P34972 whole entry): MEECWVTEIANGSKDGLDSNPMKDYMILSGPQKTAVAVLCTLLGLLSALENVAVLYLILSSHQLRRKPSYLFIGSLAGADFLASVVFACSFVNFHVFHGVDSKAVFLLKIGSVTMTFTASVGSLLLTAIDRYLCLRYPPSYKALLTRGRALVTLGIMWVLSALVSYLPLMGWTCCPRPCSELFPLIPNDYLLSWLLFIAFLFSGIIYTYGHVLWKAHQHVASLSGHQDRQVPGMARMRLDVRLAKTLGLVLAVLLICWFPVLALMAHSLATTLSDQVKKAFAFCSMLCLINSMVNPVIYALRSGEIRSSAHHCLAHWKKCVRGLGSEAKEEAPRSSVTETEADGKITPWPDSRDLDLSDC
# Chain of Cannabinoid receptor 1 (P21554 whole entry): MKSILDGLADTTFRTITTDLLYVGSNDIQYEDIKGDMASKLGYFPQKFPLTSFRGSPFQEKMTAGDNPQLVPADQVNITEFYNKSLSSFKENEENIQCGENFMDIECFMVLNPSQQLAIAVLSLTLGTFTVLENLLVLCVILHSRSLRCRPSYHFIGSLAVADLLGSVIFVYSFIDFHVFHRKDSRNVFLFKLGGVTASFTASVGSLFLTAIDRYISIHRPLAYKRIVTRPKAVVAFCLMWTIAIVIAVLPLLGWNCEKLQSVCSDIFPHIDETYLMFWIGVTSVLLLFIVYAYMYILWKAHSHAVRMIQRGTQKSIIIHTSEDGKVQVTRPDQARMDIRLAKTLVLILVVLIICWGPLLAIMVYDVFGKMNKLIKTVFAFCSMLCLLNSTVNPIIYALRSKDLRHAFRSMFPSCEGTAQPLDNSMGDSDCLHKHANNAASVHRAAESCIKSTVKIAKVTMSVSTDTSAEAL
compound,measurement,setting,value
Cn1cc2c(n1)c(O)c(C(=O)NC13CC4CC(CC(C4)C1)C3)c(=O)n2CCCCO,solubility kinetic,[1],3.2 µg/mL
same,EC50,[2],1450 nM
same,solubility kinetic,[3],2.53 µg/mL
same,Ki,[4],> 1000 nM
same,Ki,[5],14.3 nM
same,IC50,[6],25000 nM
same,IC50,[7],12500 nM
CCCCCn1c(=O)c(C(=O)NC23CC4CC(CC(C4)C2)C3)c(O)c2nn(CCO)cc21,solubility kinetic,[1],0.7 µg/mL
same,EC50,[2],880 nM
same,solubility kinetic,[3],0.38 µg/mL
same,Ki,[4],108 nM
same,Ki,[5],4.8 nM
same,IC50,[6],7500 nM
same,IC50,[7],2500 nM
Cn1cc2c(n1)c(O)c(C(=O)NC13CC4CC(CC(O)(C4)C1)C3)c(=O)n2CCCCF,solubility kinetic,[1],37.6 µg/mL
same,EC50,[2],590 nM
same,solubility kinetic,[3],39.9 µg/mL
same,Ki,[4],> 1000 nM
same,Ki,[5],6.2 nM
same,IC50,[6],25000 nM
same,pKa,[8],7.97
same,logP,[9],3.15
same,IC50,[7],12500 nM
CCCn1c(=O)c(C(=O)NC23CC4CC(CC(C4)C2)C3)c(O)c2nn(CCO)cc21,solubility kinetic,[1],3.9 µg/mL
same,solubility kinetic,[3],3.4 µg/mL
same,Ratio Ki,[10],6
same,Ki,[4],> 1000 nM
same,Ki,[5],159 nM
CN1N=CC2C1C(O)=C(C(=O)NC13CC4CC(CC(O)(C4)C1)C3)C(=O)N2CCCCF (stereo not drawn),solubility kinetic,[1],15.1 µg/mL
same,solubility kinetic,[3],9.1 µg/mL
same,Ki,[4],161 nM
same,Ki,[5],18.9 nM
same,IC50,[6],25000 nM
same,EC50,[11],71.8 nM
same,IC50,[7],7500 nM
CCCCN1C(=O)C(C(=O)NC23CC4CC(CC(O)(C4)C2)C3)=C(O)C2C1C=NN2C (stereo not drawn),solubility kinetic,[1],4.6 µg/mL
same,solubility kinetic,[3],2.1 µg/mL
same,Ki,[4],86.9 nM
same,Ki,[5],19.3 nM
same,IC50,[6],25000 nM
same,pKa,[8],7.56
same,logP,[9],4.85
same,IC50,[7],7500 nM
CC(=O)OCCCCn1c(=O)c(C(=O)NC23CC4CC(CC(C4)C2)C3)c(O)c2nn(C)cc21,solubility kinetic,[1],1.3 µg/mL
same,EC50,[2],2080 nM
same,Ki,[4],> 1000 nM
same,Ki,[5],17.3 nM
same,IC50,[6],25000 nM
same,IC50,[7],7500 nM
COc1ccc(C(=O)c2c(C)n(CCN3CCOCC3)c3cc(I)ccc23)cc1,EC50,[2],3150 nM
CN1N=CC2C1C(O)=C(C(=O)NC13CC4CC(CC(C4)C1)C3)C(=O)N2CCCCF (stereo not drawn),solubility kinetic,[1],1.5 µg/mL
same,solubility kinetic,[3],0.7 µg/mL
same,Ki,[4],39.3 nM
same,Ki,[5],1.4 nM
same,IC50,[6],12500 nM
same,EC50,[11],21.9 nM
same,IC50,[7],12500 nM
CCCCN1C(=O)C(C(=O)NC23CC4CC(CC(C4)C2)C3)=C(O)C2C1C=NN2C (stereo not drawn),solubility kinetic,[1],0.49 µg/mL
same,solubility kinetic,[3],0.13 µg/mL
same,Activity,[12],inactive
same,Ki,[4],69 nM
same,Ki,[5],1.8 nM
same,Activity,[13],Active
same,Activity,[14],10.1%
same,Activity,[15],14.2%
same,Activity,[16],13.9%
same,Activity,[17],inactive
same,Activity,[18],0.9%
same,IC50,[6],25000 nM
same,Activity,[19],12.9%
same,pKa,[8],8
same,Activity,[20],Active
same,Activity,[21],8.9%
same,Activity,[22],68%
same,logP,[9],5.3
same,Activity,[23],Active
same,EC50,[11],110 nM
same,Activity,[24],12.6%
same,IC50,[7],12500 nM
same,Activity,[25],94%
same,Activity,[26],51%
same,Activity,[27],1%
same,Activity,[28],inactive
same,Activity,[29],1%
CCCCn1c(=O)c(C(=O)NC23CC4CC(CC(C4)C2)C3)c(O)c2nn(C)cc21,solubility kinetic,[1],1.9 µg/mL
same,EC50,[2],370 nM
same,solubility kinetic,[3],0.23 µg/mL
same,Ki,[4],231 nM
same,Ki,[5],2.5 nM
same,IC50,[6],12500 nM
same,pKa,[8],8.6
same,logP,[9],5.3
same,IC50,[7],7500 nM
CCCCCn1cc(C(=O)NC23CC4CC(CC(C4)C2)C3)c(=O)c2cc(C(C)C)ccc21,solubility kinetic,[1],1 µg/mL
CCCCCn1c(=O)c(C(=O)NC23CC4CC(CC(O)(C4)C2)C3)c(O)c2nn(CCO)cc21,solubility kinetic,[1],15 µg/mL
same,solubility kinetic,[3],9.7 µg/mL
same,Ki,[4],492 nM
same,Ki,[5],57.1 nM
same,IC50,[6],7500 nM
same,IC50,[7],2500 nM
CCCCCn1c(=O)c(C(=O)NC23CC4CC(CC(C4)C2)C3)c(O)c2nn(C)cc21,solubility kinetic,[1],1.9 µg/mL
same,EC50,[2],1180 nM
same,solubility kinetic,[3],2.9 µg/mL
same,Ratio Ki,[10],167
same,Ki,[4],33.5 nM
same,Ki,[5],0.18 nM
CCCCCN1C(=O)C(C(=O)NC23CC4CC(CC(C4)C2)C3)=C(O)C2C1C=NN2C (stereo not drawn),solubility kinetic,[1],1.08 µg/mL
same,solubility kinetic,[3],0.4 µg/mL
same,Ratio Ki,[10],62
same,Ki,[4],56 nM
same,Ki,[5],0.9 nM
same,EC50,[11],252 nM
CCCC(C)(C)c1ccc2c(c1)OC(C)(C)[C@@H]1CC=C(C)C[C@@H]21,EC50,[11],391 nM
CCCn1c(=O)c(C(=O)NC23CC4CC(CC(C4)C2)C3)c(O)c2nn(CCOC(C)=O)cc21,solubility kinetic,[1],1.1 µg/mL
same,Ratio Ki,[10],5
same,Ki,[4],> 1000 nM
same,Ki,[5],186 nM
CCCCn1c(=O)c(C(=O)NC23CC4CC(CC(C4)C2)C3)c(O)c2nn(CCO)cc21,solubility kinetic,[1],2.1 µg/mL
same,solubility kinetic,[3],1.6 µg/mL
same,Ki,[4],> 1000 nM
same,Ki,[5],18.4 nM
same,IC50,[6],12500 nM
same,IC50,[7],2500 nM
Cn1cc2c(n1)c(O)c(C(=O)NC13CC4CC(CC(C4)C1)C3)c(=O)n2CCCCF,solubility kinetic,[1],0.8 µg/mL
same,EC50,[2],270 nM
same,solubility kinetic,[3],0.6 µg/mL
same,Ki,[4],532 nM
same,Ki,[5],2.1 nM
same,IC50,[6],12500 nM
same,IC50,[7],7500 nM
CCCCn1c(=O)c(C(=O)NC23CC4CC(CC(O)(C4)C2)C3)c(O)c2nn(C)cc21,solubility kinetic,[1],20.9 µg/mL
same,solubility kinetic,[3],15 µg/mL
same,Ki,[4],> 1000 nM
same,Ki,[5],10.6 nM
same,IC50,[6],7500 nM
same,pKa,[8],7.9
same,logP,[9],4.08
same,IC50,[7],2500 nM
